Common to all, as to format: ADME, organism-based
Settings in all cases: in vivo

Series [1] can be described thus: Cmax in Sprague-Dawley rat at 10 mg/kg, po. Details: dose 10 mg/kg, route po.
Series [2] in a line: Tmax in Sprague-Dawley rat at 10 mg/kg, po.
The nature of series [3]: AUC (0 to last) in Sprague-Dawley rat at 10 mg/kg, po. Details: dose 10 mg/kg, route po.
The nature of series [4]: Half life in Sprague-Dawley rat at 10 mg/kg, po.

Molecules are shown by their SMILES.

In series [1], `CN(C)CCc1cn(C(=O)CN(C)C(=O)[C@H](N)Cc2ccccc2)c2ccccc12.Cl.Cl` had a Cmax of 2.43 ng/mL. The Tmax in series [2] stood at 0.5 h. Besides, the AUC(0-t) in series [3] is 7.17 ng·h/mL. For the same compound, the half-life in series [4] is 3.31 h.
Take `COc1ccc2c(c1)c(CCN(C)C)cn2C(=O)CCCC(C)=O`: in series [1], the concentration peaked (Cmax) at 106 ng/mL. In series [2], the Tmax stood at 1 h. This compound showed an AUC(0-t) in series [3] of 362 ng·h/mL. In addition, in series [4], the half-life is 2.02 h.
Turning to `COc1ccc2c(c1)c(CCN(C)C)cn2C(=O)[C@@H](N)C(C)C.Cl.Cl`, the concentration in series [1] peaked (Cmax) at 11.1 ng/mL. Also, the Tmax in series [2] turned out to be 2 h. The compound also returned an AUC(0-t) in series [3] of 155 ng·h/mL. In series [4], this compound gave a half-life of 5.54 h.
On to `C[C@H](N)C(=O)n1cc(CCN(C)C)c2ccccc21.Cl.Cl`, for which the Cmax in series [1] turned out to be 20.2 ng/mL. Further, the Tmax in series [2] was 0.5 h. This compound also returned an AUC(0-t) in series [3] of 126 ng·h/mL. The half-life in series [4] was 4.08 h.
The matching figures for `COc1ccc2c(c1)c(CCN(C)C)cn2C(=O)c1ccccc1`: 17.7 ng/mL, 1 h, 66.5 ng·h/mL and 10.3 h.

These data come from ChEMBL document CHEMBL5252664, “Orally Active Forms of DMT, 5-MeO-DMT, and Long-Acting MDMA for the Treatment of Neuropsychiatric Disorders” (ACS Med Chem Lett, 2023).
